Laboratory results reported in US6468998B1, “Pyrrolidine compounds and medicinal utilization thereof” (Mitsubishi Pharma Corporation, priority 1998, dated 2002).

Experiments:
[1] = system: platelet rich plasma (PRP); assay: Platelet aggregation suppressive action (collagen + 5-HT, platelet rich plasma); assay type: cell-based, Japanese white rabbit; details: Oryctolagus cuniculus, rabbit PRP, collagen + 3 μM 5-HT
Description: Platelet Aggregation Suppressive Action
Preparation of platelet rich plasma and a platelet aggregation test were performed according to the method of Born, G. V. R. et al. [Journal of Physiology, Vol. 168, p. 178 (1963)] as in the following. Blood was drawn from the carotid of male Japanese white rabbit with local anesthesia with xylocaine, using a syringe previously added with 3.8% sodium citrate in a 1/10 amount of the blood. This blood was centrifuged at 1000 round/min for 10 min at room temperature to give a platelet rich plasma (PRP) supernatant. This supernatant was further centrifuged at 3000 round/min for 10 min to give a platelet poor plasma (PPP) supernatant. Taking the measurement values of PRP and PPP as 0% aggregation and 100% aggregation, respectively, the platelet aggregation rate (%) was calculated. A test compound (3 μl) was added to 300 μl of PRP and the mixture was incubated at 37° C. for 5 min. Thereto were added, as aggregation inducing substances, collagen at a concentration prohibitive on aggregation by its single administration, and the final concentration of 3 μM of 5-HT, and the aggregation reaction was recorded for 7 min. The effect of the test compound was determined as percent suppression relative to the control group, using the maximum aggregation as an index. The 50% inhibition concentration (IC50) of the test compound was calculated by the nonlinear regression. In the same manner as above, a comparative experiment was conducted for the use of sarpogrelate and cilostazol, respectively as a control compound.

[2] = Effect on heart rate and blood pressure; assay type: in vivo, Wistar rat; details: for Change of blood pressure / Change of heart rate: 1 hour, no anesthesia or restriction
Description: Effect on Heart Rate and Blood Pressure
A catheter was placed in the femoral artery of Wistar rat, and the blood pressure and heart rate were invasively monitored under no anesthesia or restriction. At 1 hour from the oral administration of the test drug, blood pressure and heart rate were taken. In the same manner as above, a comparative experiment was performed using cilostazol as a control compound.
In the Table, the values are mean±standard error (n=4).

[3] = system: lauric acid-induced peripheral arterial obstruction model; assay: Lauric acid-induced peripheral arterial obstruction model (preventive effect); assay type: in vivo, Wistar rats; details: for Lesion score 1 day later / Lesion score 3 days later / Lesion score 5 days later / Lesion score 7 days later: first dose 1 h before lauric acid, score 0 normal to 6
Description: Effect on Lauric Acid-induced Peripheral Arterial Obstruction Model (Preventive Effect) Under anesthesia, lauric acid (0.75 mg/0.15 mL) was injected into the right femoral artery of Wistar rats (6-8 weeks of age). A drug was administered 1 hour before the lauric acid injection. The drug was orally administered twice a day for 8 days. In the same manner as above, a comparative experiment was performed using cilostazol as a control compound. In the Table, the values are mean±standard error (n=12).

erythrocytes = assay: Improvement effect of erythrocyte deformation (Nuclepore membrane filter method); assay type: in vivo, SHRSP (stroke prone spontaneously hypertensive rat); details: SHRSP; for Volume of erythrocytes passed: 5 μm filter
Description: Improvement Effect of Erythrocyte Deformation
Blood was drawn under anesthesia from SHRSP (stroke prone spontaneously hypertensive rat) loaded with 1% saline for 3 weeks, and the time necessary for 0.5 mL of blood to pass through a filter (pore size 5 μm, Nuclepore) was measured by the Nuclepore membrane filter method of Reid et al., based on which the volume (mL/min) of the erythrocytes passed was calculated. The volume of the erythrocytes passed was taken as an index of erythrocyte deformation. A drug was orally administered 1 hour before drawing the blood. In the same manner as above, a comparative experiment was performed using sarpogrelate as a control compound.
(§1) In the Table, the values are mean±standard error (n=6).

[4] = system: lauric acid-induced peripheral arterial obstruction model; assay: Rat lauric acid-induced peripheral arterial obstruction model (therapeutic effect); assay type: in vivo, Wistar rats; details: for Lesion score 1 day later / Lesion score 3 days later / Lesion score 5 days later / Lesion score 7 days later: score 0 normal to 6
Description: Effect on Rat Lauric Acid-induced Peripheral Arterial Obstruction Model (Therapeutic Effect) Under anesthesia, lauric acid (0.75 mg/0.15 mL) was injected into the right femoral artery of Wistar rats (6-8 weeks of age). A drug was administered one day after the lauric acid injection. The drug was orally administered twice a day for 7 days. In the same manner as above, a comparative experiment was performed using sarpogrelate and cilostazol as a control compound. In the Table, the values are mean±standard error (n=11).

[5] = system: collateral circulation model; assay: Promotion of collateral circulation (femoral artery ligation, ADP-added platelet suspension, leg blood flow); assay type: in vivo, rat; details: 10 mg/kg oral
Description: Promotion of Collateral Circulation
A collateral circulation model was prepared by rat femoral artery ligation, and a test drug was orally administered 7 days later. At 1 hour from the test drug administration, ADP-added platelet suspension (200 μM) was administered under anesthesia into the femoral artery (1 mL/kg), and changes in the leg blood flow were measured. In the same manner as above, a comparative experiment was performed using cilostazol as a control compound.
as §1

5-HT2 receptor = molecular target: T1, 5-HT2 receptor (Rattus norvegicus, UniProt P14842); assay: Affinity for 5-HT2 receptor (binding with 3H-ketanserine); details: rat cerebral cortex crude synapse membrane, 37° C. 20 min
T1 construct: A crude synapse membrane was prepared from a freeze-dried rat cerebral cortex; from tissue; host or cells: rat cerebral cortex (crude synaptic membrane)
T1 sequence (P14842 whole entry): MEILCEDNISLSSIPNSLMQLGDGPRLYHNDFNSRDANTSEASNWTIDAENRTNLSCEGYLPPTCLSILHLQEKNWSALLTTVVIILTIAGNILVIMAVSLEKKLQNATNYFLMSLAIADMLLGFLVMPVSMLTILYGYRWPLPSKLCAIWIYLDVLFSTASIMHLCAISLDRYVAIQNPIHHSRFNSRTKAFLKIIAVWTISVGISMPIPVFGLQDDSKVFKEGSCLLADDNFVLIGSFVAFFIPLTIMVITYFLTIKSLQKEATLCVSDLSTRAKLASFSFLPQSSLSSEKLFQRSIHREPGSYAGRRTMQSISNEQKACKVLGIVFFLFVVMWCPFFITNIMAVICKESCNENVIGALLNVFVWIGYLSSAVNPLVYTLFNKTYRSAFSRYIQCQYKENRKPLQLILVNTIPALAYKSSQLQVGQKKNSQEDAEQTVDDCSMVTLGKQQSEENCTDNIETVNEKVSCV
Description: Affinity for 5-HT2 Receptor (Binding with ^3H-ketanserine)
Preparation of a crude synapse membrane and a binding test were performed according to the method of Leysen J. E. et al. [Molecular Pharmacology, Vol. 21, p. 301 (1982)]. A crude synapse membrane was prepared from a freeze-dried rat cerebral cortex, and the membrane specimen and ^3H-ketanserine were incubated in the presence of a test compound at 37° C. for 20 min. After the completion of the reaction, the reaction mixture was immediately filtered by suction on a Whatmann GF/B filter (trademark), and the radioactivity on the filter was measured on a liquid scintillation counter. The amount of non-specific binding was measured in the presence of 10 μM mianserin. The 50% inhibition concentration (IC50) of the test compound was calculated by the nonlinear regression. In the same manner as above, a comparative test was performed using sarpogrelate as a control compound.

[6] = system: rat intermittent claudication model; assay: Effect on rat intermittent claudication model (femoral artery ligation, treadmill walking distance); assay type: in vivo; details: for walking distance 8 days after administration (Δm): change vs value before ligation, mean±SE
Source text: Effect on Rat Intermittent Claudication Model
Rat was anesthetized and the right thigh was opened to expose femoral artery, which was ligated with a silk thread at a position nearest possible to the heart (upstream). In addition, a position about 1 cm from the ligation site to the periphery was ligated with a silk thread, making two ligature sites. Starting from the next day of preparation of a model to day 8 therefrom, a drug was orally administered twice a day for 8 days. However, the drug was orally administered only in the evening of the first day of administration and only in the morning of the final administration day. The walking distance was measured one day before model preparation (initial value), day 1, day 5 and day 8 with a treadmill apparatus. Using a gait test table without an angle of inclination, the conveyor advance speed was first set to 15 m/min, and the speed was increased every 5 min by 5 m/min until the animal failed walking three times, based on which the walking distance of the rat was measured. In the same manner as above, a comparative experiment was performed using sarpogrelate and cilostazol, respectively as a control compound.
In the Table, the values are mean±standard error (n=8 but n=6 only for sarpogrelate group).

[7] = 10 mg/kg oral twice a day from one day after lauric acid
[8] = 30 mg/kg oral twice a day from one day after lauric acid
[9] = 1 hour, after ADP-added platelet suspension

O=C(N[C@H]1CCN(CCc2ccc(F)cc2)C1)C12CC3CC(CC(C3)C1)C2 [Example 2, (S)-N-(1-(2-(4-fluorophenyl)ethyl)pyrrolidin-3-yl)-1-adamantanecarboxamide]
IC50 [1]: 1.9 nM
influence on heart rate or blood pressure (in words) ([2]; 30 mg/kg and 100 mg/kg): did not influence the heart rate or blood pressure
Change of blood pressure ([2]; 30 mg/kg oral): 0.0 ± 1.5 mmHg
Change of heart rate ([2]; 30 mg/kg oral): −1.3 ± 4.7 beats/min
Change of blood pressure ([2]; 100 mg/kg oral): −2.8 ± 0.8 mmHg
Change of heart rate ([2]; 100 mg/kg oral): −4.5 ± 5.2 beats/min
peripheral circulatory disturbance (in words) ([3]; 10 mg/kg and 30 mg/kg, prior to the lauric acid injection): significantly reduced the peripheral circulatory disturbance
Lesion score 1 day later ([3]; 10 mg/kg oral twice a day): 1.8 ± 0.1
Lesion score 3 days later ([3]; 10 mg/kg oral twice a day): 2.1 ± 0.2
Lesion score 5 days later ([3]; 10 mg/kg oral twice a day): 1.8 ± 0.3
Lesion score 7 days later ([3]; 10 mg/kg oral twice a day): 1.9 ± 0.5
Lesion score 1 day later ([3]; 30 mg/kg oral twice a day): 1.8 ± 0.2
Lesion score 3 days later ([3]; 30 mg/kg oral twice a day): 2.0 ± 0.3
Lesion score 5 days later ([3]; 30 mg/kg oral twice a day): 1.5 ± 0.4
Lesion score 7 days later ([3]; 30 mg/kg oral twice a day): 1.2 ± 0.5
volume of the erythrocyte passed, % of the vehicle group (erythrocytes; 10 mg/kg): 133%
Volume of erythrocytes passed (erythrocytes; 10 mg/kg oral 1 hour before drawing blood): 1.05 ± 0.13 mL/min
volume of the erythrocyte passed, % of the vehicle group (erythrocytes; 30 mg/kg): 186%
Volume of erythrocytes passed (erythrocytes; 30 mg/kg oral 1 hour before drawing blood): 1.47 ± 0.19 mL/min
Lesion score 1 day later [4, 7]: 2.0 ± 0.0
Lesion score 3 days later [4, 7]: 2.2 ± 0.1
Lesion score 5 days later [4, 7]: 2.2 ± 0.4
Lesion score 7 days later [4, 7]: 2.2 ± 0.4
Lesion score 1 day later [4, 8]: 1.8 ± 0.1
Lesion score 3 days later [4, 8]: 1.7 ± 0.2
Lesion score 5 days later [4, 8]: 1.3 ± 0.3
Lesion score 7 days later [4, 8]: 0.9 ± 0.5
peripheral circulatory disturbance (in words) ([4]; 30 mg/kg, from one day after the lauric acid injection): significantly reduced the peripheral circulatory disturbance
decrease in leg blood flow caused by ADP-added platelet suspension (in words) [5]: suppressed the decrease in the blood flow in the legs on both sides
Change in blood flow, control side [5, 9]: −10.1 ± 1.4 %
Change in blood flow, femoral artery ligation side [5, 9]: −11.8 ± 1.2 %
IC50 (5-HT2 receptor): 0.18 nM
walking distance 8 days after administration (Δm) ([6]; 3 mg/kg oral twice a day): −94.3 ± 36.1 m
walking distance at day 8 of ligation (in words) ([6]; 3 mg/kg, 10 mg/kg and 30 mg/kg, b.i.d.): significantly increased
walking distance 8 days after administration (Δm) ([6]; 10 mg/kg oral twice a day): −89.9 ± 22.2 m
walking distance 8 days after administration (Δm) ([6]; 30 mg/kg oral twice a day): −88.6 ± 25.0 m
